{"source": "patent US5916925A", "about": "“Pharmaceutical composition for treatment of dementia” (Takeda Chemical Industries, Ltd., priority 1996, dated 1999)", "key": {"patients": {"test_system": "patients", "conditions": "cited from earlier work"}, "[1]": {"test_system": "passive avoidance learning deficit in old rats", "experiment": "passive avoidance learning in old rats", "type": "in vivo, rats of the Fischer 344 strain", "conditions": "idebenone 3 mg/kg, Compound A 0.3 mg/kg, oral, or both; for retention trials, learning deficit: 24 hours after shock loading", "method": "(§1) The old rats were divided into the following four groups.\n(§2) Passive avoidance learning tests were started on day 14 of treatment, and Morris water maze learning tests on day 20 of treatment.\nThe passive avoidance learning test was performed using a chamber consisting of light and dark compartments. […] After a rat moved to the dark compartment, the rat was kept there for about 10 seconds with the door closed. One to two hours after such habituation trials, acquisition trials were performed.\nIn acquisition trials, after a rat moved to the dark compartment, a foot shock (0.4 mA, 3 seconds) was given through the grid floor. Retention trials were performed 24 hours after acquisition trials.\nIn each trial, the latency from opening of the slide door till the animal moved to the dark compartment (step-through latency) was measured."}, "[2]": {"test_system": "water maze learning deficit in old rats", "experiment": "Morris water maze learning in old rats", "type": "in vivo, rats of the Fischer 344 strain", "conditions": "for average latency to find the platform for all trials, vs control group / water maze learning deficit, overall: idebenone 3 mg/kg, Compound A 0.3 mg/kg, oral, or both", "method": "as §1, §2\nIn pretraining which was performed for swimming training and motivation for escaping from water, four trials were performed using a water bath, 80 cm in diameter, in a condition that the platform was visible. From the following day, using a water bath, 120 cm in diameter, learning trials, one session (four trials) per day, were performed with the platform being placed below the water."}, "[3]": {"test_system": "patients with senile dementia of Alzheimer's type", "experiment": "clinical study, safety assessment and dropouts", "type": "in vivo, human", "conditions": "for subjects dropped out: subjects in this study (groups not separated)", "method": "(§3) In patients with senile dementia of Alzheimer's type, a double-blind placebo controlled multicenter comparative study was conducted under the conditions shown below.\n(§4) 451 patients with senile dementia of Alzheimer's type (154 males, 297 females)\n(§5) (1) Placebo administration\nGroup 3 (placebo administration), 153 patients (54 males, 99 females; average age 70 years)\n(§6) Oral administration just after every meal\n(§7) Clinical laboratory values"}, "[4]": {"test_system": "patients with senile dementia of Alzheimer's type", "conditions": "90 mg per day per adult; cited from earlier work"}, "GPT": {"test_system": "GPT", "experiment": "hepatic clinical laboratory value GPT in patients", "type": "in vivo, human", "conditions": "for GPT Level: single patients", "method": "as §3, §4, §5, §6, §7"}, "[5]": {"test_system": "patients with senile dementia of Alzheimer's type", "experiment": "double-blind placebo controlled multicenter study, efficacy parameters (ADAS, CGI, NOSGER, SKT)", "type": "in vivo, human", "method": "as §3, §5, §6"}, "GOT": {"test_system": "GOT", "experiment": "hepatic clinical laboratory value GOT in patients", "type": "in vivo, human", "conditions": "for GOT Level: single patients", "method": "as §3, §4, §5, §6, §7"}, "[6]": {"conditions": "6 Months of Administration, 90 mg 3 times daily"}, "[7]": {"conditions": "6 Months of Administration, 120 mg 3 times daily"}, "[8]": {"conditions": "270 or 360 mg per day, 6 months, vs placebo"}, "[9]": {"conditions": "Pre-administration (baseline), 90 mg 3 times daily group"}, "[10]": {"conditions": "Pre-administration (baseline), 120 mg 3 times daily group"}, "[11]": {"conditions": "90 mg, 120 mg 3-times-a-day and placebo"}}, "note": "Where “and” joins values, the source holds several entries; their conditions need not be identical. Identical values can stand only once. Counter-ions that a name gives are not always drawn. Like-named read-outs stand apart in the source and are kept apart here.", "data": [{"smiles": "Nc1c2c(nc3ccccc13)CCCC2", "note": "[tacrine]", "values": [{"measurement": "patients who withdrew from the treatment", "setting": "patients; 30-week administration of tacrine", "result": 74, "unit": "%"}, {"measurement": "subjects dropped out", "setting": "patients; high-dose tacrine group, by 30 weeks", "result": 74, "unit": "%"}, {"measurement": "subjects dropped out", "setting": "patients; low-dose tacrine group, until final administration by 30 weeks", "result": 59, "unit": "%"}, {"measurement": "subjects dropped out", "setting": "patients; moderate-dose tacrine group, by 30 weeks", "result": 71, "unit": "%"}, {"measurement": "dropouts or discontinuations due to adverse reactions", "setting": "patients; tacrine, study period", "result": "a large number of dropouts or discontinuations occurred due to adverse reactions"}, {"measurement": "adverse effects on long-term administration", "setting": "patients; tacrine", "result": "hepatic toxicity"}]}, {"smiles": "O=C(CCC1CCN(Cc2ccccc2)CC1)c1ccc2c(c1)NCCCC2", "note": "[Compound A, 8-[1-oxo-3-(phenylmetyl)piperidin-4-yl]propyl]-2,3,4,5-tetrahydro-1H-1-benzazepine fumarate]", "values": [{"measurement": "retention trials, learning deficit", "setting": "[1]", "result": "tended to show improvements in learning deficit in old rats but the effect was not significant"}, {"measurement": "passive avoidance learning deficit, overall", "setting": "[1]", "result": "did not improve passive avoidance learning deficit in old rats"}, {"measurement": "water maze learning (latency to find the platform)", "setting": "[2]; day 2 of experiment", "result": "significant improvement"}, {"measurement": "water maze learning (latency to find the platform)", "setting": "[2]; day 3 of experiment", "result": "did not differ from the control group"}, {"measurement": "average latency to find the platform for all trials, vs control group", "setting": "[2]", "result": "did not show significant shortening of average latency compared with the control group"}, {"measurement": "water maze learning deficit, overall", "setting": "[2]", "result": "did not improve water maze learning deficit in old rats"}]}, {"smiles": "COC1=C(OC)C(=O)C(CCCCCCCCCCO)=C(C)C1=O", "note": "[idebenone, 6-(10-hydroxydecyl) -2,3-dimethoxy-5-methyl-1,4-benzoquinone]", "values": [{"measurement": "incidence and severity of accompanying symptoms", "setting": "[3]; 90 mg and 120 mg 3-times-a-day vs placebo", "result": "No differences were noted among the three groups"}, {"measurement": "subjects dropped out", "setting": "[3]; by 6 months", "result": 9, "unit": "%"}, {"measurement": "subjects dropped out", "setting": "[3]; by 12 months", "result": "about 15%"}, {"measurement": "elevation of clinical laboratory values (GOT and GPT)", "setting": "[3]; idebenone administration groups", "result": "very low"}, {"measurement": "major objective and subjective symptoms", "setting": "[3]; three groups together", "result": "vertigo, anorexia, sleep disturbance and arthralgia"}, {"measurement": "retention trials, learning deficit", "setting": "[1]", "result": "tended to show improvements in learning deficit in old rats but the effect was not significant"}, {"measurement": "passive avoidance learning deficit, overall", "setting": "[1]", "result": "did not improve passive avoidance learning deficit in old rats"}, {"measurement": "efficacy in senile dementia of Alzheimer's type", "setting": "[4]", "result": "effective"}, {"measurement": "average latency to find the platform for all trials, vs control group", "setting": "[2]", "result": "did not show significant shortening of average latency compared with the control group"}, {"measurement": "water maze learning deficit, overall", "setting": "[2]", "result": "did not improve water maze learning deficit in old rats"}, {"measurement": "water maze learning deficit (latency to find the platform)", "setting": "[2]; latter period of training, idebenone 3 mg/kg oral", "result": "slight tendency toward improvement in water maze learning deficit"}, {"measurement": "GPT Level", "setting": "GPT; [6]", "result": "61 U/L and 54 U/L and 34 U/L and 43 U/L and 26 U/L and 37 U/L and 35 U/L and 50 U/L"}, {"measurement": "GPT Level", "setting": "GPT; [7]", "result": "26 U/L and 39 U/L and 43 U/L and 55 U/L and 25 U/L and 38 U/L and 60 U/L"}, {"measurement": "change in GPT level", "setting": "GPT; [8]", "result": "little change in GPT level and GOT level"}, {"measurement": "GPT Level", "setting": "GPT; [9]", "result": "25 U/L and 34 U/L and 36 U/L and 63 U/L and 9 U/L and 14 U/L and 29 U/L and 33 U/L"}, {"measurement": "GPT Level", "setting": "GPT; [10]", "result": "22 U/L and 14 U/L and 28 U/L and 29 U/L and 37 U/L and 31 U/L"}, {"measurement": "ADAS Sum Score, relief compared with placebo", "setting": "[5]; 90 mg 3-times-a-day, 6 months", "result": "significant relief"}, {"measurement": "ADAS Sum Score, relief compared with placebo", "setting": "[5]; 90 mg 3-times-a-day, 12 months", "result": "significant relief"}, {"measurement": "ADAS Sum Score, dose dependence of effect", "setting": "[5]; 90 mg and 120 mg 3-times-a-day, 6 and 12 months", "result": "dose dependent"}, {"measurement": "ADAS Cognitive Score, differences among groups", "setting": "[5]; [11]", "result": "significant differences among the three groups were noted, with dose dependency"}, {"measurement": "CGI Global Improvement, differences among groups", "setting": "[5]; [11]", "result": "significant differences among the three groups were noted, with dose dependency"}, {"measurement": "CGI Severity of Disease, differences among groups", "setting": "[5]; [11]", "result": "significant differences among the three groups were noted, with dose dependency"}, {"measurement": "NOSGER IADL, differences among groups", "setting": "[5]; [11]", "result": "significant differences among the three groups were noted, with dose dependency"}, {"measurement": "NOSGER Sum Score, differences among groups", "setting": "[5]; [11]", "result": "significant differences among the three groups were noted, with dose dependency"}, {"measurement": "SKT, differences among groups", "setting": "[5]; [11]", "result": "significant differences among the three groups were noted, with dose dependency"}, {"measurement": "ADAS Sum Score, relief compared with placebo", "setting": "[5]; 120 mg 3-times-a-day, 6 months", "result": "significant relief"}, {"measurement": "ADAS Sum Score, relief compared with placebo", "setting": "[5]; 120 mg 3-times-a-day, 12 months", "result": "significant relief"}, {"measurement": "effect in comparison with published clinical data on tacrine", "setting": "[5]; 270 mg (90 mg, 3-times-a-day)", "result": "better effects"}, {"measurement": "effect in comparison with published clinical data on tacrine", "setting": "[5]; 360 mg (120 mg, 3-times-a-day)", "result": "better effects"}, {"measurement": "magnitude of effect, irrespective of assessment method", "setting": "[5]; 360 mg idebenone administration group", "result": "marked effect"}, {"measurement": "symptom progression", "setting": "[5]; FIGS. 1 to 7", "result": "symptom progression was surely suppressed"}, {"measurement": "symptom-relieving and symptom progression-suppressing effects, 12 months vs 6 months", "setting": "[5]; period exceeding 6 months", "result": "greater symptom-relieving and symptom progression-suppressing effects are noted at 12 months than at 6 months"}, {"measurement": "GOT Level", "setting": "GOT; [6]", "result": "45 U/L and 38 U/L and 60 U/L and 86 U/L and 49 U/L and 32 U/L and 47 U/L and 26 U/L and 29 U/L"}, {"measurement": "GOT Level", "setting": "GOT; [7]", "result": "41 U/L and 27 U/L and 28 U/L and 34 U/L and 37 U/L and 23 U/L and 131 U/L"}, {"measurement": "change in GOT level", "setting": "GOT; [8]", "result": "little change in GPT level and GOT level"}, {"measurement": "GOT Level", "setting": "GOT; [9]", "result": "19 U/L and 27 U/L and 33 U/L and 32 U/L and 15 U/L and 29 U/L and 13 U/L and 22 U/L"}, {"measurement": "GOT Level", "setting": "GOT; [10]", "result": "23 U/L and 24 U/L and 29 U/L and 21 U/L and 25 U/L"}]}]}
